Laboratory results reported in patent US12582613B2, “Biomimetic, reactive oxygen species-detonable nanoclusters for antirestenotic therapy” (University of Virginia Patent Foundation, priority 2021, dated 2026).

Experiments:
[1] = tested on: balloon-injured carotid arteries; assay: Morphometric analysis of IH and restenosis in rat carotid artery balloon angioplasty model; settings: in vivo
Method: Rat Carotid Artery Balloon Angioplasty Model. All animal experiments conform to the protocols approved by the Animal Care and Use Committee (ACUC) of the University of Virginia. All adult male Sprague-Dawley rats (Charles River, weighing 300-350 g) were maintained in a temperature and humidity-controlled SPF level animal facility under a 12 h light-dark cycle. Food and water were available ad libitum. Animals were randomly assigned to each treatment group. The carotid artery balloon injury model was operated as previously described. In brief, after anesthesia with isoflurane (5% for inducing and 2% for maintaining), a mid-line incision in the neck was made, and the carotid arteries and carotid bifurcation were exposed by blunt dissection. The proximal of left carotid artery, inner carotid artery, and external carotid artery were then temporarily ligated with 5-0 nylon suture to avoid excessive blood loss during the surgery. A 1 mm arteriotomy was created on the distal segment of the external carotid arteries. […] Area inside external elastic lamina (EEL area), area inside internal elastic lamina (IEL area), lumen area, intima area (=IEL area—lumen area), and media area (=EEL area—IEL area) were calculated using Image J. Intimal hyperplasia was defined as the ratio of intima area versus media area (Intima-to-media ratio, I/M ratio).

[2] = in vivo; cited from earlier work
[3] = tested on: PDGF-BB-stimulated VSMC; assay: PDGF-BB-induced VSMC proliferation assay (CellTiter-Glo); assay type: cell-based, Human; settings: 1 μM RVX equivalent
Method: Cell Culture. Human aortic VSMC and culture media (SmBm-2 basal medium for experimental purposes, and SmGm-2 complete medium for expansion) were purchased from Lonza (Walkersville, MD). Cells between passages 5 and 7 were maintained at 37° C. with 5% CO2 and used for all experiments. As established in previous studies, Accutase (ThermoFisher Scientific, Waltham, MA) instead of Trypsin was used for cell detachment to ensure fast cell adhesion and optimal cell status.
Cell Viability Assay of the Nanoclusters. The cytotoxicity and anti-proliferation of the nanoclusters on VSMC was evaluated by a CellTiter-Glo Luminescent Cell Viability kit according to manufacturer's instructions. VSMC were cultured in 96-well plates ([…] and 8×10^4 cells/well for experiments of proliferation and cytotoxicity, respectively) and grown for overnight. For cytotoxicity study, fresh basal medium (supplemented with 0.5% fetal bovine serum) containing NC with different concentrations were added into the plates. For proliferation study, VSMC were treated with 20 nM PDGF-BB to stimulate ROS and proliferation. […] Following 10 min incubation at room temperature, the 96-well plates were analyzed in a FlexStation 3 Benchtop Multi-Mode Microplate Reader (Molecular Devices, San Jose, California) (250-ms integration).

In the case of `COc1cc(OC)c2c(=O)[nH]c(-c3cc(C)c(OCCO)c(C)c3)nc2c1` [RVX], the “intimal hyperplasia, intima-to-media (I/M) ratio” value [1] is listed as “neither free RVX solution nor that delivered through conventional PLGA NP led to any significant changes”, the half-life [2] is listed as 1.5 h and the “effect on VSMC proliferation” value [3] is listed as “failed to exert any notable effect”.
